According to patent publication US6472348B1, “Pyridone derivatives and herbicides” (Kumiai Chemical Industry Co., Ltd., priority 1996, dated 2002):

Tests used:
Type in all cases: in vivo
pale smartweed (Po) [1] = experiment: Test Example 7: crop plant selectivity by upland field soil treatment (corn), herbicidal effects; parameters: scale not given here; conditions: 21st day after application
Method in brief: (§1)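 Scoring of weed kill and corn injury was done on day 21 after the application, using defined standards. Before that, sown seeds in sand-filled pots were covered with soil, treated, and grown in a greenhouse.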

green foxtail (Se) = experiment: as above; parameters: scale not given here; conditions: 21st day after application
Method in brief: as §1

[2] = test system: common lambsquarters (Ch); experiment: as above; parameters: scale not given here; conditions: 21st day after application
Method in brief: as §1

China jute (Ab) = experiment: as above; parameters: scale not given here; conditions: 21st day after application
Method in brief: as §1

pale smartweed (Po) [3] = experiment: Test Example 2: herbicidal effects by upland field soil treatment; conditions: 100 g of the active ingredient per 10 ares;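 also: grade of growth control; 5 = at least 90%; 4 = 70 to 90%; 3 = 50 to 70%; 2 = 30 to 50%; 1 = 10 to 30%; 0 = under 10%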
From the text: (§2) (Test on Herbicidal Effects by Upland Field Soil Treatment)

Digitaria ciliaris (Di) = experiment: as above; conditions: 100 g of the active ingredient per 10 ares;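 also: grade of growth control; 5 = at least 90%; 4 = 70 to 90%; 3 = 50 to 70%; 2 = 30 to 50%; 1 = 10 to 30%; 0 = under 10%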
From the text: as §2

slender amaranth (Am) = experiment: as above; conditions: 100 g of the active ingredient per 10 ares;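 also: grade of growth control; 5 = at least 90%; 4 = 70 to 90%; 3 = 50 to 70%; 2 = 30 to 50%; 1 = 10 to 30%; 0 = under 10%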
From the text: as §2

[4] = test system: common lambsquarters (Ch); experiment: as above; conditions: 100 g of the active ingredient per 10 ares
From the text: as §2

barnyardgrass (Ec) = experiment: as above; conditions: 100 g of the active ingredient per 10 ares;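 also: grade of growth control; 5 = at least 90%; 4 = 70 to 90%; 3 = 50 to 70%; 2 = 30 to 50%; 1 = 10 to 30%; 0 = under 10%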
From the text: as §2

rice flatsedge (Ci) = experiment: as above; conditions: 100 g of the active ingredient per 10 ares
From the text: as §2

[5] = 21st day after the application, index 0-5 of Table 47
[6] = evaluated on the 21st day after application

Cc1cc(-c2ccc(C(F)(F)F)n(C)c2=O)c(F)cc1Cl [1-90]
5: Herbicidal effects Po (pale smartweed (Po) [1]; dose 1.6 g ai/10a) | Herbicidal effects Po (pale smartweed (Po) [1]; dose 6.3 g ai/10a) | Herbicidal effects Se (green foxtail (Se); dose 1.6 g ai/10a) | Herbicidal effects Se (green foxtail (Se); dose 6.3 g ai/10a) | Herbicidal effects Ch ([2]; dose 1.6 g ai/10a) | Herbicidal effects Ch ([2]; dose 6.3 g ai/10a) | Herbicidal effects Ab (China jute (Ab); dose 1.6 g ai/10a) | Herbicidal effects Ab (China jute (Ab); dose 6.3 g ai/10a) | Herbicidal effects Po (pale smartweed (Po) [3]; [5]) | Herbicidal effects Di (Digitaria ciliaris (Di); [5]) | Herbicidal effects Am (slender amaranth (Am); [5]) | Herbicidal effects Ch [4, 5] | Herbicidal effects Ec (barnyardgrass (Ec); [5]) | Herbicidal effects Ci (rice flatsedge (Ci); [5])

COCSc1cc(-c2ccc(C(F)(F)F)n(C)c2=O)c(F)cc1Cl [1-91]
5: Herbicidal effects Po (pale smartweed (Po) [1]; dose 1.6 g ai/10a) | Herbicidal effects Po (pale smartweed (Po) [1]; dose 6.3 g ai/10a) | Herbicidal effects Se (green foxtail (Se); dose 1.6 g ai/10a) | Herbicidal effects Se (green foxtail (Se); dose 6.3 g ai/10a) | Herbicidal effects Ch ([2]; dose 1.6 g ai/10a) | Herbicidal effects Ch ([2]; dose 6.3 g ai/10a) | Herbicidal effects Ab (China jute (Ab); dose 1.6 g ai/10a) | Herbicidal effects Ab (China jute (Ab); dose 6.3 g ai/10a) | Herbicidal effects Po (pale smartweed (Po) [3]; [5]) | Herbicidal effects Di (Digitaria ciliaris (Di); [5]) | Herbicidal effects Am (slender amaranth (Am); [5]) | Herbicidal effects Ch [4, 5] | Herbicidal effects Ec (barnyardgrass (Ec); [5]) | Herbicidal effects Ci (rice flatsedge (Ci); [5])

Cn1c(C(F)(F)F)ccc(-c2cc(Cl)c(Cl)cc2F)c1=O [1-136]
5: Herbicidal effects Po (pale smartweed (Po) [1]; dose 1.6 g ai/10a) | Herbicidal effects Se (green foxtail (Se); dose 1.6 g ai/10a) | Herbicidal effects Ch ([2]; dose 1.6 g ai/10a) | Herbicidal effects Ab (China jute (Ab); dose 1.6 g ai/10a) | Herbicidal effects Po (pale smartweed (Po) [3]; [5]) | Herbicidal effects Di (Digitaria ciliaris (Di); [5]) | Herbicidal effects Am (slender amaranth (Am); [5]) | Herbicidal effects Ch [4, 5] | Herbicidal effects Ec (barnyardgrass (Ec); [5]) | Herbicidal effects Ci (rice flatsedge (Ci); [5])

Cn1c(C(F)(F)F)ccc(-c2cc(OCC(F)(F)F)c(Cl)cc2F)c1=O [1-155]
5: Herbicidal effects Po (pale smartweed (Po) [1]; dose 1.6 g ai/10a) | Herbicidal effects Po (pale smartweed (Po) [1]; dose 6.3 g ai/10a) | Herbicidal effects Se (green foxtail (Se); dose 1.6 g ai/10a) | Herbicidal effects Se (green foxtail (Se); dose 6.3 g ai/10a) | Herbicidal effects Ch ([2]; dose 1.6 g ai/10a) | Herbicidal effects Ch ([2]; dose 6.3 g ai/10a) | Herbicidal effects Ab (China jute (Ab); dose 1.6 g ai/10a) | Herbicidal effects Ab (China jute (Ab); dose 6.3 g ai/10a) | Herbicidal effects Po (pale smartweed (Po) [3]; [5]) | Herbicidal effects Di (Digitaria ciliaris (Di); [5]) | Herbicidal effects Am (slender amaranth (Am); [5]) | Herbicidal effects Ch [4, 5] | Herbicidal effects Ec (barnyardgrass (Ec); [5]) | Herbicidal effects Ci (rice flatsedge (Ci); [5])

CCOCOc1cc(-c2ccc(C(F)(F)F)n(C)c2=O)c(F)cc1Cl [1-181]
5: Herbicidal effects Po (pale smartweed (Po) [3]; [6]) | Herbicidal effects Di (Digitaria ciliaris (Di); [6]) | Herbicidal effects Am (slender amaranth (Am); [6]) | Herbicidal effects Ch [4, 6] | Herbicidal effects Ec (barnyardgrass (Ec); [6]) | Herbicidal effects Ci (rice flatsedge (Ci); [6])

C=CCN1C(=O)COc2cc(F)c(-c3ccc(C(F)(F)F)n(C)c3=O)cc21 [Compound 2-7]
5: Herbicidal effects Po (pale smartweed (Po) [3]; [6]) | Herbicidal effects Di (Digitaria ciliaris (Di); [6]) | Herbicidal effects Am (slender amaranth (Am); [6]) | Herbicidal effects Ch [4, 6] | Herbicidal effects Ec (barnyardgrass (Ec); [6]) | Herbicidal effects Ci (rice flatsedge (Ci); [6])

C#CCN1C(=O)COc2cc(F)c(-c3cn(C)c(C(F)(F)F)cc3=O)cc21 [Compound 7-1]
5: Herbicidal effects Po (pale smartweed (Po) [3]; [6]) | Herbicidal effects Di (Digitaria ciliaris (Di); [6]) | Herbicidal effects Am (slender amaranth (Am); [6]) | Herbicidal effects Ch [4, 6] | Herbicidal effects Ec (barnyardgrass (Ec); [6]) | Herbicidal effects Ci (rice flatsedge (Ci); [6])

C#CCN1C(=O)COc2cc(F)c(-c3ccc(C(F)(F)F)n(C)c3=O)cc21 [Compound No. 2-1, 3-[7-fluoro-2,3-dihydro-4-(2-propynyl)-1,4-benzoxazin-3-on-6-yl]-1-methyl-6-trifluoromethyl-2(1H)-pyridone]
5: Herbicidal effects Po (pale smartweed (Po) [3]; [6]) | Herbicidal effects Di (Digitaria ciliaris (Di); [6]) | Herbicidal effects Am (slender amaranth (Am); [6]) | Herbicidal effects Ch [4, 6] | Herbicidal effects Ec (barnyardgrass (Ec); [6]) | Herbicidal effects Ci (rice flatsedge (Ci); [6])

Cn1cc(-c2cc(Oc3ccccc3)c(Cl)cc2F)c(=O)cc1C(F)(F)F [Compound No. 6-19, 5-(4-chloro-2-fluoro-5-phenoxyphenyl)-1-methyl-2-trifluoromethyl-4(1H)-pyridone]
5: Herbicidal effects Po (pale smartweed (Po) [3]; [6]) | Herbicidal effects Di (Digitaria ciliaris (Di); [6]) | Herbicidal effects Am (slender amaranth (Am); [6]) | Herbicidal effects Ch [4, 6] | Herbicidal effects Ec (barnyardgrass (Ec); [6]) | Herbicidal effects Ci (rice flatsedge (Ci); [6])

Cc1cc2c(-c3cn(C)c(C(F)(F)F)cc3=O)c(F)cc(Cl)c2o1 [Compound No. 9-1, 5-(7-chloro-5-fluoro-2-methylbenzofuran-4-yl)-1-methyl-2-trifluoromethyl-4(1H)-pyridone]
5: Herbicidal effects Po (pale smartweed (Po) [3]; [6]) | Herbicidal effects Di (Digitaria ciliaris (Di); [6]) | Herbicidal effects Am (slender amaranth (Am); [6]) | Herbicidal effects Ch [4, 6] | Herbicidal effects Ec (barnyardgrass (Ec); [6]) | Herbicidal effects Ci (rice flatsedge (Ci); [6])
